Tests used:
Assay type in all cases: in vivo
[1] = system: Lamium purpureum; experiment: Pre-emergence test, weed control; conditions: 3 weeks after treatment, rating 0-100 (100=death), Table 3
Description: (§1) The pre-emergence tests involve spraying a liquid formulation of the compound onto the soil in which the seeds of the plant species mentioned above has recently been sown.
(§2) The soil used in the tests is a prepared horticultural loam. The formulations used in the tests are prepared from solutions of the test compounds in acetone containing 0.4% by weight of an alkylphenol/ethylene oxide condensate available under the trade mark TRITON X-155.
(§3) In these tests untreated sown soil is used as control. The herbicidal effects of the test compounds are assessed visually three weeks after spraying the soil and are recorded an a 0 to 100 scale. A rating 0 indicates growth as untreated control, a rating 100 indicates death. An increase of 10 unit an the linear scale approximates to a 10% increase in the level of effect. The results of the assessment are set out in Tables 1 to 4.

[2] = system: Poa annua; experiment: Pre-emergence test, weed control; conditions: 3 weeks after treatment, rating 0-100 (100=death), Table 3
Description: as §1, §2, §3

[3] = system: Stellaria media; experiment: Pre-emergence test, weed control; conditions: 3 weeks after treatment, rating 0-100 (100=death), Table 3
Description: as §1, §2, §3

[4] = system: Lolium perenne; experiment: Pre-emergence test, weed control; conditions: 3 weeks after treatment, rating 0-100 (100=death), Table 3
Description: as §1, §2, §3

[5] = system: Alopecurus myosuroides; experiment: Pre-emergence test, weed control; conditions: 3 weeks after treatment, rating 0-100 (100=death), Table 3
Description: as §1, §2, §3

[6] = system: Veronica persica; experiment: Pre-emergence test, weed control; conditions: 3 weeks after treatment, rating 0-100 (100=death), Table 3
Description: as §1, §2, §3

[7] = system: Matricaria inodora; experiment: Pre-emergence test, weed control; conditions: 3 weeks after treatment, rating 0-100 (100=death), Table 3
Description: as §1, §2, §3

[8] = system: Apera spica-venti; experiment: Pre-emergence test, weed control; conditions: 3 weeks after treatment, rating 0-100 (100=death), Table 3
Description: as §1, §2, §3

[9] = system: Setaria viridis; experiment: Pre-emergence test, weed control; conditions: 3 weeks after treatment, rating 0-100 (100=death), Table 3
Description: as §1, §2, §3

[10] = system: Galium aparine; experiment: Pre-emergence test, weed control; conditions: 3 weeks after treatment, rating 0-100 (100=death), Table 3
Description: as §1, §2, §3

[11] = system: wheat; experiment: Pre-emergence test, tolerance in wheat; conditions: in vivo
Description: as §1, §2
as §3, with “These acetone solutions are diluted with water and the resulting formulations applied at dosage levels corresponding to 15 g, 30 g, 60 g, 120 g or 240 g of active material per hectare in a volume equivalent to 900 liters per hectare. In” for “In”

[12] = system: Triticum aestivum variety “Monopol”; experiment: Pre-emergence test, selectivity; conditions: 3 weeks after treatment, rating 0-100 (100=death), Table 4
Description: as §1, §2
as §3, with “These acetone solutions are diluted with water and the resulting formulations applied at dosage levels corresponding to 15 g, 30 g, 60 g, 120 g or 240 g of active material per hectare in a volume equivalent to 900 liters per hectare. In” for “In”

[13] = system: Triticum aestivum variety “Kanzler”; experiment: Pre-emergence test, selectivity; conditions: 3 weeks after treatment, rating 0-100 (100=death), Table 4
Description: as §1, §2
as §3, with “These acetone solutions are diluted with water and the resulting formulations applied at dosage levels corresponding to 15 g, 30 g, 60 g, 120 g or 240 g of active material per hectare in a volume equivalent to 900 liters per hectare. In” for “In”

[14] = system: PAPRH; experiment: Pre-emergence test, weed control; conditions: 3 weeks after treatment, rating 0-100 (100=death), Table 3
Description: as §1, §2
as §3, with “These acetone solutions are diluted with water and the resulting formulations applied at dosage levels corresponding to 15 g, 30 g, 60 g, 120 g or 240 g of active material per hectare in a volume equivalent to 900 liters per hectare. In” for “In”

[15] = system: VIOAR; experiment: Pre-emergence test, weed control; conditions: 3 weeks after treatment, rating 0-100 (100=death), Table 3
Description: as §1, §2
as §3, with “These acetone solutions are diluted with water and the resulting formulations applied at dosage levels corresponding to 15 g, 30 g, 60 g, 120 g or 240 g of active material per hectare in a volume equivalent to 900 liters per hectare. In” for “In”

Compound: CSc1cc(Oc2ccnc(Cl)c2)nc(-c2ccc(C(F)(F)F)cc2)n1 [REF-7]
- LAMPU weed control rating ([1]; 0.030 kg/ha): 30
- LAMPU weed control rating ([1]; 0.060 kg/ha): 90
- LAMPU weed control rating ([1]; 0.120 kg/ha): 93
- LAMPU weed control rating ([1]; 0.240 kg/ha): 100
- POAAN weed control rating ([2]; 0.030 kg/ha): 95
- POAAN weed control rating ([2]; 0.060 kg/ha): 95
- POAAN weed control rating ([2]; 0.120 kg/ha): 100
- POAAN weed control rating ([2]; 0.240 kg/ha): 100
- STEME weed control rating ([3]; 0.030 kg/ha): 25
- STEME weed control rating ([3]; 0.060 kg/ha): 98
- STEME weed control rating ([3]; 0.120 kg/ha): 98
- STEME weed control rating ([3]; 0.240 kg/ha): 100
- LOLPE weed control rating ([4]; 0.030 kg/ha): 75
- LOLPE weed control rating ([4]; 0.060 kg/ha): 90
- LOLPE weed control rating ([4]; 0.120 kg/ha): 97
- LOLPE weed control rating ([4]; 0.240 kg/ha): 99
- ALOMY weed control rating ([5]; 0.030 kg/ha): 10
- ALOMY weed control rating ([5]; 0.060 kg/ha): 35
- ALOMY weed control rating ([5]; 0.120 kg/ha): 65
- ALOMY weed control rating ([5]; 0.240 kg/ha): 90
- VERPE weed control rating ([6]; 0.030 kg/ha): 70
- VERPE weed control rating ([6]; 0.060 kg/ha): 90
- VERPE weed control rating ([6]; 0.120 kg/ha): 99
- VERPE weed control rating ([6]; 0.240 kg/ha): 100
- MATIN weed control rating ([7]; 0.030 kg/ha): 90
- MATIN weed control rating ([7]; 0.060 kg/ha): 100
- MATIN weed control rating ([7]; 0.120 kg/ha): 100
- MATIN weed control rating ([7]; 0.240 kg/ha): 100
- APESV weed control rating ([8]; 0.030 kg/ha): 100
- APESV weed control rating ([8]; 0.060 kg/ha): 100
- APESV weed control rating ([8]; 0.120 kg/ha): 100
- APESV weed control rating ([8]; 0.240 kg/ha): 100
- SETVI weed control rating ([9]; 0.030 kg/ha): 35
- SETVI weed control rating ([9]; 0.060 kg/ha): 85
- SETVI weed control rating ([9]; 0.120 kg/ha): 93
- SETVI weed control rating ([9]; 0.240 kg/ha): 100
- GALAP weed control rating ([10]; 0.120 kg/ha): 65
- GALAP weed control rating ([10]; 0.240 kg/ha): 92
- maximum tolerated dose in wheat / dose at which sufficiently selective in wheat [11]: 240 g/ha
- TRZAWM rating (Selectivity) ([12]; 0.030 kg/ha): 2
- TRZAWM rating (Selectivity) ([12]; 0.060 kg/ha): 5
- TRZAWM rating (Selectivity) ([12]; 0.120 kg/ha): 5
- TRZAWM rating (Selectivity) ([12]; 0.240 kg/ha): 10
- TRZAWK rating (Selectivity) ([13]; 0.030 kg/ha): 2
- TRZAWK rating (Selectivity) ([13]; 0.060 kg/ha): 5
- TRZAWK rating (Selectivity) ([13]; 0.120 kg/ha): 5
- TRZAWK rating (Selectivity) ([13]; 0.240 kg/ha): 18
- PAPRH weed control rating ([14]; 0.030 kg/ha): 95
- PAPRH weed control rating ([14]; 0.060 kg/ha): 100
- PAPRH weed control rating ([14]; 0.120 kg/ha): 100
- PAPRH weed control rating ([14]; 0.240 kg/ha): 100
- VIOAR weed control rating ([15]; 0.030 kg/ha): 98
- VIOAR weed control rating ([15]; 0.060 kg/ha): 99
- VIOAR weed control rating ([15]; 0.120 kg/ha): 99
- VIOAR weed control rating ([15]; 0.240 kg/ha): 99

Compound: Cc1cnc(-c2ccc(C(F)(F)F)cc2)nc1Oc1ccnc(Cl)c1 [REF-4]
- LAMPU weed control rating ([1]; 0.030 kg/ha): 97
- LAMPU weed control rating ([1]; 0.060 kg/ha): 100
- LAMPU weed control rating ([1]; 0.120 kg/ha): 100
- LAMPU weed control rating ([1]; 0.240 kg/ha): 100
- POAAN weed control rating ([2]; 0.030 kg/ha): 100
- POAAN weed control rating ([2]; 0.060 kg/ha): 100
- POAAN weed control rating ([2]; 0.120 kg/ha): 100
- POAAN weed control rating ([2]; 0.240 kg/ha): 100
- STEME weed control rating ([3]; 0.030 kg/ha): 92
- STEME weed control rating ([3]; 0.060 kg/ha): 100
- STEME weed control rating ([3]; 0.120 kg/ha): 100
- STEME weed control rating ([3]; 0.240 kg/ha): 100
- LOLPE weed control rating ([4]; 0.030 kg/ha): 98
- LOLPE weed control rating ([4]; 0.060 kg/ha): 98
- LOLPE weed control rating ([4]; 0.120 kg/ha): 100
- LOLPE weed control rating ([4]; 0.240 kg/ha): 100
- ALOMY weed control rating ([5]; 0.030 kg/ha): 20
- ALOMY weed control rating ([5]; 0.060 kg/ha): 92
- ALOMY weed control rating ([5]; 0.120 kg/ha): 93
- ALOMY weed control rating ([5]; 0.240 kg/ha): 98
- VERPE weed control rating ([6]; 0.030 kg/ha): 98
- VERPE weed control rating ([6]; 0.060 kg/ha): 100
- VERPE weed control rating ([6]; 0.120 kg/ha): 100
- VERPE weed control rating ([6]; 0.240 kg/ha): 100
- MATIN weed control rating ([7]; 0.030 kg/ha): 100
- MATIN weed control rating ([7]; 0.060 kg/ha): 100
- MATIN weed control rating ([7]; 0.120 kg/ha): 100
- MATIN weed control rating ([7]; 0.240 kg/ha): 100
- APESV weed control rating ([8]; 0.030 kg/ha): 100
- APESV weed control rating ([8]; 0.060 kg/ha): 100
- APESV weed control rating ([8]; 0.120 kg/ha): 100
- APESV weed control rating ([8]; 0.240 kg/ha): 100
- SETVI weed control rating ([9]; 0.030 kg/ha): 65
- SETVI weed control rating ([9]; 0.060 kg/ha): 80
- SETVI weed control rating ([9]; 0.120 kg/ha): 100
- SETVI weed control rating ([9]; 0.240 kg/ha): 100
- GALAP weed control rating ([10]; 0.240 kg/ha): 90
- maximum tolerated dose in wheat / dose at which sufficiently selective in wheat [11]: 60 g/ha
- TRZAWM rating (Selectivity) ([12]; 0.030 kg/ha): 15
- TRZAWM rating (Selectivity) ([12]; 0.060 kg/ha): 8
- TRZAWM rating (Selectivity) ([12]; 0.120 kg/ha): 22
- TRZAWM rating (Selectivity) ([12]; 0.240 kg/ha): 35
- TRZAWK rating (Selectivity) ([13]; 0.030 kg/ha): 10
- TRZAWK rating (Selectivity) ([13]; 0.060 kg/ha): 15
- TRZAWK rating (Selectivity) ([13]; 0.120 kg/ha): 22
- TRZAWK rating (Selectivity) ([13]; 0.240 kg/ha): 22
- PAPRH weed control rating ([14]; 0.030 kg/ha): 100
- PAPRH weed control rating ([14]; 0.060 kg/ha): 100
- PAPRH weed control rating ([14]; 0.120 kg/ha): 100
- PAPRH weed control rating ([14]; 0.240 kg/ha): 100
- VIOAR weed control rating ([15]; 0.030 kg/ha): 99
- VIOAR weed control rating ([15]; 0.060 kg/ha): 100
- VIOAR weed control rating ([15]; 0.120 kg/ha): 100
- VIOAR weed control rating ([15]; 0.240 kg/ha): 100

From US7008905B2, “Method of combating undesired plant growth on cereals” (BASF Aktiengesellschaft, priority 2000, dated 2006)
